The source of these data is paper PMC8514546, “Structural basis of the P4B ATPase lipid flippase activity” (Nature Communications, 2021).

Experiment [1] concerns the target T1, Neo1 (Saccharomyces cerevisiae, UniProt P40527).
T1 construct: full length (1151 residues), N-terminal triple FLAG tag, overexpressed in S. cerevisiae from pRS423 with GAP promoter; monomer, purified in LMNG/CHS
T1 sequence (P40527 1-1151): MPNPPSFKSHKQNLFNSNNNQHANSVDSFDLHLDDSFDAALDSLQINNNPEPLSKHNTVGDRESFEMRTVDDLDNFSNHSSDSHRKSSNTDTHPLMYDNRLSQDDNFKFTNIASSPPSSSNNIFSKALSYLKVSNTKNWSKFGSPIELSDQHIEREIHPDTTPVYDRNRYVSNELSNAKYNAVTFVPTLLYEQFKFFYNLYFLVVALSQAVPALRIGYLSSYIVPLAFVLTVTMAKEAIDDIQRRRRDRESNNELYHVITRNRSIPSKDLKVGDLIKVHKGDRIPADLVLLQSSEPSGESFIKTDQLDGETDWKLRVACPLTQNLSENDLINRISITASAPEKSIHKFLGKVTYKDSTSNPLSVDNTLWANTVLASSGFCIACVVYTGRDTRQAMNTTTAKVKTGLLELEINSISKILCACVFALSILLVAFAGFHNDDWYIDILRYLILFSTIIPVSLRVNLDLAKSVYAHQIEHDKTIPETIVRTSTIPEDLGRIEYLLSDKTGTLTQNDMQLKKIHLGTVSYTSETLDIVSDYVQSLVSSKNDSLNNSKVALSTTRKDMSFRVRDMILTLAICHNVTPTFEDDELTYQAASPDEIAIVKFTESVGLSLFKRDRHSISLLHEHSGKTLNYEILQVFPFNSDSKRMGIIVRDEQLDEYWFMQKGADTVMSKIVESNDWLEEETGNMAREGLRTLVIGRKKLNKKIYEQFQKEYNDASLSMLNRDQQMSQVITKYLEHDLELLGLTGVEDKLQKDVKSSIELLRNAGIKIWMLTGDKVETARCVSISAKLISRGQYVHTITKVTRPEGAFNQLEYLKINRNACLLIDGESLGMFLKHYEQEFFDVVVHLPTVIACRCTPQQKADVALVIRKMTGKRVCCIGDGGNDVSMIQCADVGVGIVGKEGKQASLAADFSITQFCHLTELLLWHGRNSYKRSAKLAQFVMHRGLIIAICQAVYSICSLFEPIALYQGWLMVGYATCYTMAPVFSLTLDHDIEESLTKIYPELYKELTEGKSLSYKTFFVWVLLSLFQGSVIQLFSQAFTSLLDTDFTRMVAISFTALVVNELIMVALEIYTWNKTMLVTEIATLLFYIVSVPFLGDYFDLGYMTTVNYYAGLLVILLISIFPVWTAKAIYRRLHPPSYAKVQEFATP
As to the kind of experiment: cryo-EM structure, […] Å. In kind it is binding. The note with it: E1-ATP state; AMPPCP at the N and P domain interface; 1 mM (Results) or 2 mM (Methods) AMPPCP, 5 mM MgCl2.

Experiment [2] concerns the target T1, Neo1. As to the kind of experiment: lipid-stimulated ATP hydrolysis, released phosphate by BIOMOL Green. It counts as biochemical. The note with it: 0.25 mM ATP, 10 mM MgCl2, pH 7.4, 37 °C, LMNG/CHS, lipid in cholate; transport substrate, acyl chain not stated.

Regarding `Nc1ncnc2c1ncn2[C@@H]1O[C@H](COP(=O)(O)OP(=O)(O)CP(=O)(O)O)[C@@H](O)[C@H]1O` [AMPPCP], the “cryo-EM structure, 5.6 Å” value in experiment [1] is “the AMPPCP density is clear and the molecule stabilizes the interface between the N and P domains”. For the compound lyso-PS, the Km in experiment [2] came out at 50.3 ± 8.8 µM.

The Km is the substrate concentration at which the rate is half of its maximum.
